For this assay, the target named is T1, F508del (Homo sapiens, UniProt P13569, DEL508-508).
T1 construct: expressed in transfected cells
In words: Membrane potential optical assay (FRET voltage-sensor dyes), identification of correction compounds. Type of assay: cell-based. The settings on record: NIH3T3 cells stably expressing F508del, procedures described above; for Emax: maximum efficacy, read-out: Max Efficacy; for pEC50: modulation of CFTR activity. Summed up:
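NIH3T3 mouse fibroblasts stably expressing F508del incubated 16 hrs at 37° C. in serum-free medium with or without compound. After dye loading (CC2-DMPE/DiSBAC2(3)), 10 μM forskolin plus 20 μM genistein added in Cl⁻-free medium; depolarization from Cl⁻ efflux read by FRET on VIPR II.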

pEC50: −log10 of the molar value.

T1 sequence (P13569 with tags, fused parts or gaps DEL508-508): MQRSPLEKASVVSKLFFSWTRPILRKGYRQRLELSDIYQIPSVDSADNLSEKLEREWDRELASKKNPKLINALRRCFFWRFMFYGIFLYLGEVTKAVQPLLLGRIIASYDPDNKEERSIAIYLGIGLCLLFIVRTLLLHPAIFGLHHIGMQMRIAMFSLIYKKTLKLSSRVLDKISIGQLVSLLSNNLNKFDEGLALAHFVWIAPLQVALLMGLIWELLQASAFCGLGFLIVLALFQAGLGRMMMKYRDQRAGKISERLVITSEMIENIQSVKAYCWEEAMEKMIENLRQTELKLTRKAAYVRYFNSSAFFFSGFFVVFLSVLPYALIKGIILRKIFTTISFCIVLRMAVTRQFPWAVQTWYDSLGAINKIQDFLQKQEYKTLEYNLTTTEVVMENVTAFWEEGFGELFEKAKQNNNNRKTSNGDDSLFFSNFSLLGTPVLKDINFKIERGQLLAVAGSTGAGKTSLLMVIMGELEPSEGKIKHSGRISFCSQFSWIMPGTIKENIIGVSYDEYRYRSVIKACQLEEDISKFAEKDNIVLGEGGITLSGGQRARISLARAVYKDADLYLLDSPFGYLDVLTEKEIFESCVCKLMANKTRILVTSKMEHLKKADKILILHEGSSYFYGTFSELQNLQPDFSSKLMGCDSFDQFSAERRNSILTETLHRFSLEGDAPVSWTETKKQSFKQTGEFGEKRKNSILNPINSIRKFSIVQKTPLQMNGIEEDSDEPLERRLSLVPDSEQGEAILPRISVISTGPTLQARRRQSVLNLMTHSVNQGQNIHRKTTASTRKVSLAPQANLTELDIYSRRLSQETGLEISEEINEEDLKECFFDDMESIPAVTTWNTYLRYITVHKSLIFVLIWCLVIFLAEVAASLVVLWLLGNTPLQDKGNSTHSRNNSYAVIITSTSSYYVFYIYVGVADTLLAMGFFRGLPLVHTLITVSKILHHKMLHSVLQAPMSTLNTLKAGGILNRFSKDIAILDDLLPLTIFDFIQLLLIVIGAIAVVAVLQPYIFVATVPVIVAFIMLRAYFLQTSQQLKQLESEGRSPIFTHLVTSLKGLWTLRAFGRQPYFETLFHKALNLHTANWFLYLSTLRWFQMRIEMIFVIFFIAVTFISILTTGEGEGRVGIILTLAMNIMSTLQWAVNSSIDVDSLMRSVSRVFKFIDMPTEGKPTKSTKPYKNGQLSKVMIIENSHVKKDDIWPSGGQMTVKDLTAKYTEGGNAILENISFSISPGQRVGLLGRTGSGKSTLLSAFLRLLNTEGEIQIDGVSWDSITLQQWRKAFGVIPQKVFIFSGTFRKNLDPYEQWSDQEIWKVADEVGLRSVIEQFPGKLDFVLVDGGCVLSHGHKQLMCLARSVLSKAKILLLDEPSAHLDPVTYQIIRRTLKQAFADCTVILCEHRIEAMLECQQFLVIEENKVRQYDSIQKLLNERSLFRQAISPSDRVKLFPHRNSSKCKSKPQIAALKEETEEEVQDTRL

Broadly, the pEC50 is −log10 of the EC50, conventionally taken in molar units. As to `CC(C)COc1cc(F)cc(-c2ccc(C(=O)NS(=O)(=O)c3cccc(N)n3)c(N(C)CC(C)C)n2)c1` [Compound 61, N-[(6-amino-2-pyridyl)sulfonyl]-6-(3-fluoro-5-isobutoxy-phenyl)-2-[isobutyl(methyl)amino]pyridine-3-carboxamide], the Emax was above 80% and the negative-log EC50 (pEC50) is above 5.52.
The matching figures for `CCCC(C)C(C)Oc1nc(-c2cc(F)cc(OCC(C)C)c2)ccc1C(=O)NS(=O)(=O)c1cccc(N)n1` (centres unmarked) [Compound 62, N-[(6-amino-2-pyridyl)sulfonyl]-2-(1,2-dimethylpentoxy)-6-(3-fluoro-5-isobutoxy-phenyl)pyridine-3-carboxamide]: 30 to 80% and above 5.52.
The matching figures for `CCCCOc1nc(-c2cc(F)cc(OCC(C)C)c2)ccc1C(=O)NS(=O)(=O)c1cccc(N)n1` [Compound 63, N-[(6-amino-2-pyridyl)sulfonyl]-2-butoxy-6-(3-fluoro-5-isobutoxy-phenyl)pyridine-3-carboxamide]: above 80% and above 5.52.
The like results for `CCCN(C)c1nc(-c2cc(F)cc(OCC(C)C)c2)ccc1C(=O)NS(=O)(=O)c1cccc(N)n1` [Compound 64, N-[(6-amino-2-pyridyl)sulfonyl]-6-(3-fluoro-5-isobutoxy-phenyl)-2-[methyl(propyl)amino]pyridine-3-carboxamide] were, in that order, above 80% and above 5.52.
On to `COC[C@@H](C)Oc1nc(-c2cc(F)cc(OCC(C)C)c2)ccc1C(=O)NS(=O)(=O)c1cccc(N)n1` [Compound 65, N-[(6-amino-2-pyridyl)sulfonyl]-6-(3-fluoro-5-isobutoxy-phenyl)-2-[(1R)-2-methoxy-1-methyl-ethoxy]pyridine-3-carboxamide], for which the Emax was 30 to 80% and the pEC50 was above 5.52.
Regarding `CC(C)COc1cc(F)cc(-c2ccc(C(=O)NS(=O)(=O)c3cccc(N)n3)c(N(C)CC(F)(F)F)n2)c1` [Compound 66, N-[(6-amino-2-pyridyl)sulfonyl]-6-(3-fluoro-5-isobutoxy-phenyl)-2-[methyl(2,2,2-trifluoroethyl)amino]pyridine-3-carboxamide], the Emax was above 80% and the pEC50 is above 5.52.
Take `CCN(C)c1nc(-c2cc(F)cc(OCC(C)C)c2)ccc1C(=O)NS(=O)(=O)c1cccc(N)n1` [Compound 67, N-[(6-amino-2-pyridyl)sulfonyl]-2-[ethyl(methyl)amino]-6-(3-fluoro-5-isobutoxy-phenyl)pyridine-3-carboxamide]: the Emax is above 80% and the pEC50 is above 5.52.
In the case of `CC(C)COc1cc(F)cc(-c2ccc(C(=O)NS(=O)(=O)c3cccc(N)n3)c(OC(C(C)C)C(C)(C)C)n2)c1` (centres unmarked) [Compound 68, N-[(6-amino-2-pyridyl)sulfonyl]-6-(3-fluoro-5-isobutoxy-phenyl)-2-(1-isopropyl-2,2-dimethyl-propoxy)pyridine-3-carboxamide], the Emax was 30 to 80% and the pEC50 was above 5.52.
The like results for `CCC(CC)N(C)c1nc(-c2cc(F)cc(OCC(C)C)c2)ccc1C(=O)NS(=O)(=O)c1cccc(N)n1` [Compound 69, N-[(6-amino-2-pyridyl)sulfonyl]-2-[1-ethylpropyl(methyl)amino]-6-(3-fluoro-5-isobutoxy-phenyl)pyridine-3-carboxamide] were, in that order, above 80% and above 5.52.
In the case of `CC(C)Oc1ccc(-c2ccc(C(=O)NS(=O)(=O)c3cccc(N)n3)c(N(C)C(C)C)n2)cn1` [Compound 70, N-[(6-amino-2-pyridyl)sulfonyl]-6-(6-isopropoxy-3-pyridyl)-2-[isopropyl(methyl)amino]pyridine-3-carboxamide], the Emax lay within 30 to 80% and the pEC50 is 5.00 to 5.52.
The matching figures for `CCOCC(C)Oc1nc(-c2cc(F)cc(OCC(C)C)c2)ccc1C(=O)NS(=O)(=O)c1cccc(N)n1` (centres unmarked) [Compound 71, N-[(6-amino-2-pyridyl)sulfonyl]-2-(2-ethoxy-1-methyl-ethoxy)-6-(3-fluoro-5-isobutoxy-phenyl)pyridine-3-carboxamide]: 30 to 80% and above 5.52.
The like results for `CC(C)COc1cc(F)cc(-c2ccc(C(=O)NS(=O)(=O)c3ccn[nH]3)c(NCC(C)(C)C)n2)c1` [Compound 72, 2-(2,2-dimethylpropylamino)-6-(3-fluoro-5-isobutoxy-phenyl)-N-(1H-pyrazol-5-ylsulfonyl)pyridine-3-carboxamide] were, in that order, 30 to 80% and 5.00 to 5.52.
The matching figures for `CC(C)COc1cc(F)cc(-c2ccc(C(=O)NS(=O)(=O)c3cccc(N)n3)c(OC(C)C(F)(F)F)n2)c1` (centres unmarked) [Compound 73, N-[(6-amino-2-pyridyl)sulfonyl]-6-(3-fluoro-5-isobutoxy-phenyl)-2-(2,2,2-trifluoro-1-methyl-ethoxy)pyridine-3-carboxamide]: 30 to 80% and above 5.52.
Take `CCN(c1nc(-c2cc(F)cc(OCC(C)C)c2)ccc1C(=O)NS(=O)(=O)c1cccc(N)n1)C(C)C` [Compound 74, N-[(6-amino-2-pyridyl)sulfonyl]-2-[ethyl(isopropyl)amino]-6-(3-fluoro-5-isobutoxy-phenyl)pyridine-3-carboxamide]: the Emax is above 80% and the pEC50 is above 5.52.
The like results for `CC(C)COc1cc(F)cc(-c2ccc(C(=O)NS(=O)(=O)c3cccc(N)n3)c(N(C)[C@H](C)C(F)(F)F)n2)c1` [Compound 75, N-[(6-amino-2-pyridyl)sulfonyl]-6-(3-fluoro-5-isobutoxy-phenyl)-2-[methyl-[(1R)-2,2,2-trifluoro-1-methyl-ethyl]amino]pyridine-3-carboxamide] were, in that order, above 80% and above 5.52.
The like results for `CC(C)COc1cc(F)cc(-c2ccc(C(=O)NS(=O)(=O)c3cccc(N)n3)c(C(C)C(C)C)n2)c1` (centres unmarked) [Compound 76, N-[(6-amino-2-pyridyl)sulfonyl]-2-(1,2-dimethylpropyl)-6-(3-fluoro-5-isobutoxy-phenyl)pyridine-3-carboxamide] were, in that order, 30 to 80% and above 5.52.
`CCC(C)(C)CCOc1nc(-c2cc(F)cc(OCC(C)C)c2)ccc1C(=O)NS(=O)(=O)c1cccc(N)n1` [Compound 77, N-[(6-amino-2-pyridyl)sulfonyl]-2-(3,3-dimethylpentoxy)-6-(3-fluoro-5-isobutoxy-phenyl)pyridine-3-carboxamide]: the Emax lay within 30 to 80% and the pEC50 was above 5.52.
The matching figures for `CC(C)COc1cc(F)cc(-c2ccc(C(=O)NS(=O)(=O)c3ccn[nH]3)c(N(C)C(C)C)n2)c1` [Compound 79, 6-(3-fluoro-5-isobutoxy-phenyl)-2-[isopropyl(methyl)amino]-N-(1H-pyrazol-5-ylsulfonyl)pyridine-3-carboxamide]: above 80% and above 5.52.
For `CC(C)COc1cc(F)cc(-c2ccc(C(=O)NS(=O)(=O)c3cccc(N)n3)c(NCCC(C)(C)O)n2)c1` [Compound 80, N-[(6-amino-2-pyridyl)sulfonyl]-6-(3-fluoro-5-isobutoxy-phenyl)-2-[(3-hydroxy-3-methyl-butyl)amino]pyridine-3-carboxamide], the Emax is 30 to 80% and the pEC50 was below 5.00.
The matching figures for `CC(C)COc1cc(F)cc(-c2ccc(C(=O)NS(=O)(=O)c3cccc(N)n3)c(OCCC(F)(F)F)n2)c1` [Compound 81, N-[(6-amino-2-pyridyl)sulfonyl]-6-(3-fluoro-5-isobutoxy-phenyl)-2-(3,3,3-trifluoropropoxy)pyridine-3-carboxamide]: 30 to 80% and above 5.52.
On to `CC(C)COc1cc(F)cc(-c2ccc(C(=O)NS(=O)(=O)c3cccc(N)n3)c(OCCCC(F)(F)F)n2)c1` [Compound 82, N-[(6-amino-2-pyridyl)sulfonyl]-6-(3-fluoro-5-isobutoxy-phenyl)-2-(4,4,4-trifluorobutoxy)pyridine-3-carboxamide], for which the Emax lay in the range of 30 to 80% and the pEC50 was above 5.52.
The like results for `CC(C)COc1cc(F)cc(-c2ccc(C(=O)NS(=O)(=O)c3cccc(N)n3)c(OC/C=C/C(F)(F)F)n2)c1` [Compound 83, N-[(6-amino-2-pyridyl)sulfonyl]-6-(3-fluoro-5-isobutoxy-phenyl)-2-[(E)-4,4,4-trifluorobut-2-enoxy]pyridine-3-carboxamide] were, in that order, 30 to 80% and above 5.52.
Regarding `CCCCCNc1nc(-c2cc(F)cc(OCC(C)C)c2)ccc1C(=O)NS(=O)(=O)c1cccc(N)n1` [Compound 84, N-[(6-amino-2-pyridyl)sulfonyl]-6-(3-fluoro-5-isobutoxy-phenyl)-2-(pentylamino)pyridine-3-carboxamide], the Emax was above 80% and the pEC50 is 5.00 to 5.52.
The like results for `CCOc1cccc2c1CN(CC(C)(C)C)C2(C)C(=O)NS(=O)(=O)c1cccc(=O)[nH]1` (centres unmarked) [Compound 85, 2-(2,2-dimethylpropyl)-4-ethoxy-1-methyl-N-[(6-oxo-1H-pyridin-2-yl)sulfonyl]isoindoline-1-carboxamide] were, in that order, at most 30% and below 5.00.
Regarding `CC(C)COc1cc(F)cc(-c2ccc(C(=O)NS(=O)(=O)c3ccccc3)c(N(C)CCCC(=O)O)n2)c1` [Compound 86, 4-[[3-(benzenesulfonylcarbamoyl)-6-(3-fluoro-5-isobutoxy-phenyl)-2-pyridyl]-methyl-amino]butanoic Acid], the Emax is at most 30% and the pEC50 was below 5.00.

Source of the values: patent publication US10738030B2, “Modulators of cystic fibrosis transmembrane conductance regulator” (Vertex Pharmaceuticals Incorporated, priority 2016, dated 2020).
